Results as given in patent publication US20230255927A1 (ELANCO TIERGESUNDHEIT AG, priority 2022, published 2023).

Tests used:
[1] = system: lactating Holstein cows; assay: Wisconsin Study: dietary monensin fed to lactating cows for 9 weeks; type: in vivo
Experimental: Methods: […] All cows received 11 g/ton Rumensin for a 5-week covariate period after which pens received 1 of 4 dietary treatments (n=3) formulated to provide 0 g/ton (Control, “CON”), 11 g/ton (R11), 14.5 g/ton (R14.5), or 18 g/ton (R18) of Rumensin for 9 weeks. Basal diet was 54% forage and 27% Neutral Detergent Fiber (NDF), 29% starch, and 2.3% Rumen Unsaturated Fatty Acid Load (RUFAL). The pen was the experimental unit, and data were analyzed using the Fit Model Procedure of JMP with treatment as a fixed effect and pen as a random effect. LS-means were determined and contrasts of CON vs. R11, CON vs. R14.5, CON vs. R18, and linear and quadratic effects were tested.

[2] = system: lactating dairy cows; assay: New York/Cornell Study: dietary monensin fed to lactating dairy cows; type: in vivo
Excerpt: Lactating dairy cows were used for the instant example. Methods: One-hundred ninety-two lactating cows (120±50 DIM) were randomly assigned to 12 pens each including 16 cows.

[3] = all treatments, not affected by treatment

CC[C@@]1([C@@H]2O[C@@H]([C@H]3O[C@@](O)(CO)[C@H](C)C[C@@H]3C)C[C@@H]2C)CC[C@H]([C@]2(C)CC[C@]3(C[C@H](O)[C@@H](C)[C@@H]([C@@H](C)[C@@H](OC)[C@H](C)C(=O)O)O3)O2)O1 [monensin]
DMI ([1]; R11, 11 g/ton): 60 lb/d
De novo fatty acid yield ([1]; R11, 11 g/ton): 0.99 g/100 g milk
ECM ([1]; R11, 11 g/ton): 106 lb/d
Estimated Dietary Energy ([1]; R11, 11 g/ton): 1.70 Mcal/kg DM
Milk Fat ([1]; R11, 11 g/ton): 4.13%
Milk Yield ([1]; R11, 11 g/ton): 98 lb/d
Protein ([1]; R11, 11 g/ton): 3.16%
Milk fat yield increase vs. CON ([1]; R11, 11 g/ton, P=0.04): 0.08 kg/day
ECM/DMI increase vs. CON ([1]; R11, 11 g/ton, P=0.05): 2.9%
ECM increase vs CON ([1]; R11, 11 g/ton, P=0.09): 1.3 kg/day
DMI ([1]; R14.5, 14.5 g/ton): 60 lb/d
ECM ([1]; R14.5, 14.5 g/ton): 105 lb/d
Estimated Dietary Energy ([1]; R14.5, 14.5 g/ton): 1.71 Mcal/kg DM
Milk Fat ([1]; R14.5, 14.5 g/ton): 4.04%
Milk Yield ([1]; R14.5, 14.5 g/ton): 99 lb/d
Protein ([1]; R14.5, 14.5 g/ton): 3.14%
ECM/DMI increase vs. CON ([1]; R14.5, 14.5 g/ton, P=0.02): 3.5%
DMI ([1]; R18, 18 g/ton): 58 lb/d
ECM ([1]; R18, 18 g/ton): 102 lb/d
Estimated Dietary Energy ([1]; R18, 18 g/ton): 1.73 Mcal/kg DM
Milk Fat ([1]; R18, 18 g/ton): 3.97%
Milk Yield ([1]; R18, 18 g/ton): 97 lb/d
Protein ([1]; R18, 18 g/ton): 3.14%
Estimated dietary energy increase vs. CON ([1]; R18, 18 g/ton, P=0.01): 3.0%
ECM/DMI increase vs. CON ([1]; R18, 18 g/ton, P=0.09): 2.3%
DMI ([1]; R18, 18 g/ton, listed as Rumensin): 26.4 kg/day
Milk Yield [1, 3]: 44 kg/day
Milk fat percentage [1, 3]: 4.0%
Milk protein percentage [1, 3]: 3.2%
Milk protein yield [1, 3]: 1.4 kg/day
DMI ([2]; R11, 11 g/ton): 59 lb/d
ECM ([2]; R11, 11 g/ton): 103 lb/d
Estimated Dietary Energy ([2]; R11, 11 g/ton): 1.65 Mcal/kg DM
Milk Fat ([2]; R11, 11 g/ton): 4.67%
Milk Yield ([2]; R11, 11 g/ton): 88 lb/d
Protein ([2]; R11, 11 g/ton): 3.38%
Energy-corrected milk (ECM) ([2]; R11 group, 11 g/ton): 46.9 kg/day
Milk Yield ([2]; R11 group, 11 g/ton): 39.9 kg/day
Milk fat yield ([2]; R11 group, 11 g/ton): 1.83 kg/day
Milk protein yield ([2]; R11 group, 11 g/ton): 1.33 kg/day
DMI ([2]; R14.5, 14.5 g/ton): 59 lb/d
ECM ([2]; R14.5, 14.5 g/ton): 104 lb/d
Estimated Dietary Energy ([2]; R14.5, 14.5 g/ton): 1.65 Mcal/kg DM
Milk Fat ([2]; R14.5, 14.5 g/ton): 4.71%
Milk Yield ([2]; R14.5, 14.5 g/ton): 87 lb/d
Protein ([2]; R14.5, 14.5 g/ton): 3.37%
Energy-corrected milk (ECM) ([2]; R14.5 group, 14.5 g/ton): 47.1 kg/day
FA unsaturation compared to CON ([2]; R14.5 group, 14.5 g/ton): significantly reduced
Milk Yield ([2]; R14.5 group, 14.5 g/ton): 39.7 kg/day
Milk fat yield ([2]; R14.5 group, 14.5 g/ton): 1.85 kg/day
Milk protein yield ([2]; R14.5 group, 14.5 g/ton): 1.33 kg/day
DMI ([2]; R18, 18 g/ton): 61 lb/d
ECM ([2]; R18, 18 g/ton): 103 lb/d
Estimated Dietary Energy ([2]; R18, 18 g/ton): 1.68 Mcal/kg DM
Milk Fat ([2]; R18, 18 g/ton): 4.67%
Milk Yield ([2]; R18, 18 g/ton): 87 lb/d
Protein ([2]; R18, 18 g/ton): 3.39%
DMI ([2]; R18 group, 18 g/ton): increased numerically
Energy-corrected milk (ECM) ([2]; R18 group, 18 g/ton): 46.8 kg/day
FA unsaturation compared to CON ([2]; R18 group, 18 g/ton): significantly reduced
Milk Yield ([2]; R18 group, 18 g/ton): 39.6 kg/day
Milk fat yield ([2]; R18 group, 18 g/ton): 1.83 kg/day
Milk protein yield ([2]; R18 group, 18 g/ton): 1.33 kg/day
Milk fat percentage ([2]; all treatment groups): greater than 4.6%
Milk true protein percent ([2]; all treatment groups): ≥ 3.35%
Increase in ECM ([2]; increasing monensin supplementation, non-significant): 2%
